Test results: patent publication US9073916B2, “Prodrug forms of kinase inhibitors and their use in therapy” (AUCKLAND UNISERVICES LIMITED, priority 2009, dated 2015)
Counter-ions that a name gives are not always drawn. Like-named read-outs stand apart in the source and are kept apart here.

Legend:
erbB1 = erbB1 (Homo sapiens, UniProt P00533); assay: Inhibition of erbB1 autophosphorylation in EGF-stimulated intact A431 cells (Western blot)
SW620 cells = assay: Cellular growth inhibition (sulforhodamine B); format: cell-based, Human; settings: Table 3; for IC50: Homo sapiens, SW-620
SKBR3 cells = assay: Cellular growth inhibition (sulforhodamine B); format: cell-based, Human; settings: Table 3; for IC50: Homo sapiens, SK-BR-3
Experimental: (§2) Human A431, BT474, SKBR3, SKOV3, SW620, H1975 and HT29 carcinoma cells in log phase exponential growth in alpha minimal essential media (αMEM) containing 5% fetal bovine serum (FBS), were harvested by trypsinisation (1× trypsin/EDTA, Gibco Brl), counted, and seeded into 96 well plates (Nunc) at cell densities ranging from 800-1500 cells/well. Half of the cell samples were seeded into plates that were pre-equilibrated and held in an anoxic environment (90% N2, 5% H2, 5% CO2, 37° Q Anaerobic chamber, Coy Laboratory Products). […] At the end of this period the anoxic plates were recovered from the anaerobic camber and held under normoxia in a standard CO2 incubator (37° C.) for 20 hours. All plates were washed free of compound and cells were allowed to proliferate for a further 4 days in αMEM containing 5% FBS+antibiotics. Cells were fixed in trichloroacteic acid (30 min), washed and stained with sulforhodamine B (SRB, 60 min) prior to washing in acidified water. SRB was solubilised and absorption read at 450 nm to calculate cell densities. Inhibition of proliferation was calculated relative to untreated control wells.

A431 cells = assay: Cellular growth inhibition (sulforhodamine B); settings: for A431 HCR (Hypoxic Cytotoxicity Ratio): Table 3
Experimental: as §2
(§3) Human A431, H1975 and SKOV3 carcinoma cells in log phase exponential growth in alpha minimal essential media (αMEM) containing 5% fetal bovine serum (FBS), were harvested by trypsinisation (1× trypsin/EDTA, Gibco Brl), counted, and seeded into 96 well plates (Nunc) at cell densities ranging from 800-1500 cells/well. Half of the cell samples were seeded into plates that were pre-equilibrated and held in an anoxic environment (90% N2, 5% H2, 5% CO2, 37° C.; Anaerobic chamber, Coy Laboratory Products). […] At the end of this period the anoxic plates were recovered from the anaerobic camber and held under normoxia in a standard CO2 incubator (37° C.) for 20 hours. All plates were washed free of compound and cells were allowed to proliferate for a further 4 days in αMEM containing 5% FBS+antibiotics. Cells were fixed in trichloroacteic acid (30 min), washed and stained with sulforhodamine B (SRB, 60 min) prior to washing in acidified water. SRB was solubilised and absorption read at 450 nm to calculate cell densities. Inhibition of proliferation was calculated relative to untreated control wells.

HT29 cells = assay: Cellular growth inhibition (sulforhodamine B); format: cell-based, Human; settings: Table 7
Experimental: as §2

H1975 cells = assay: Cellular growth inhibition (sulforhodamine B); format: cell-based, Human
Experimental: as §2, §3
They were then washed free of drug and incubated for a further 4 days, before being stained for cell survival with sulforhodamine B.

[1] = Steady state radiolytic reduction by the CO2.− radical with HPLC-MS; format: physicochemical; settings: for Detection of MNA (methyl nitroaromatic) / release of effector following 1-electron reduction: HPLC-MS; for % Loss of prodrug: HPLC-MS at 0.95 reducing equivalents; for release of effector following 1-electron reduction: steady state radiolysis
[2] = Pulse radiolysis (E(1) and fragmentation rate); format: physicochemical; settings: for kfrag. (fragmentation rate constant upon 1-electron reduction): benzyl-type radical formation; for E (1)/V (one-electron reduction potential): determined against methylviologen
Experimental: (§1) Pulse radiolysis was used to monitor the 1-electron reduction and stability of the compounds in real time. A linear accelerator delivering short pulses of high energy electrons (2-3 Gy in 200 ns of 4 MeV) equipped with a fast spectophotometric detection system was used. (Anderson et al, J. Phys. Chem. A, 101, 9704-9709, 1997). […] The rate of fragmentation was determined by analysing kinetic transients at wavelengths corresponding to the formation of the benzyl-type radical of the trigger moiety. (Bays et al, J. Am. Chem. Soc., 105, 320-324, 1983; Anderson et al, J. Phys. Chem. A, 101, 9704-9709, 1997).
The pulse radiolysis method, for example, measures the equilibrium constant between the radical anions of the prodrugs, formed upon their 1-electron reduction, and reference standards such as viologen and quinone compounds, from which data the E(1) values of the compounds can be calculated. (Meisel and Czapski. J. Phys. Chem., 1975, 79, 1503-1509.) The E(1) values of prodrugs 17-22, 140-145 were measured by the pulse radiolysis method and determined to range between −0.493V and −0.388V (Table 4).
The rate constants for fragmentation, kfrag, of the 1-electron reduced prodrugs can be measured using pulse radiolysis to observe the time-resolved formation of the absorption spectrum of the benzyl-type radical produced upon fragmentation of the radical anion. (Anderson et al, J. Phys. Chem. A, 1997, 101, 9704-9709.) The kfrag values of prodrugs 19, 20, 140, 141 and 143-145 were measured by pulse radiolysis and are presented in Table 4.
as §1, with “one-electron” for “1-electron”, “prodrug 42” for “the compounds”, “used.” for “used. (Anderson et al, J. Phys. Chem. A, 101, 9704-9709, 1997).”, “1997.)” for “1997).”

SKOV3 cells = assay: Cellular growth inhibition (sulforhodamine B); format: cell-based, Human; settings: Table 9; for IC50: Homo sapiens, SK-OV-3
Experimental: as §3

[3] = 24 hour exposure entirely oxic, read-out: Cellular Growth Inhibition IC50 SW620 Oxic
[4] = first 4 hours anoxic, read-out: Cellular Growth Inhibition IC50 SW620 Anoxic
[5] = 24 hour exposure entirely oxic, read-out: Cellular Growth Inhibition IC50 SKBR3 Oxic
[6] = first 4 hours anoxic, read-out: Cellular Growth Inhibition IC50 SKBR3 Anoxic
[7] = Homo sapiens, A-431, 24 h, read-out: Cellular Growth Inhibition IC50 A431 Oxic
[8] = Homo sapiens, A-431, read-out: Cellular Growth Inhibition IC50 A431 Anoxic
[9] = 24 hour exposure oxic, read-out: Cellular Growth Inhibition IC50 HT29 Oxic
[10] = initial 4 hours anoxic, read-out: Cellular Growth Inhibition IC50 HT29 Anoxic
[11] = Table 7, 24 hour exposure oxic, read-out: Cellular Growth Inhibition IC50 H1975 Oxic
[12] = Table 7, initial 4 hours anoxic, read-out: Cellular Growth Inhibition IC50 H1975 Anoxic
[13] = read-out: Cellular Growth Inhibition IC50 A431 Anoxic, Table 7, initial 4 hours anoxic
[14] = read-out: Cellular Growth Inhibition IC50 A431 Oxic, Table 7, 24 hour exposure oxic

Chain of erbB1 (P00533 25-1210): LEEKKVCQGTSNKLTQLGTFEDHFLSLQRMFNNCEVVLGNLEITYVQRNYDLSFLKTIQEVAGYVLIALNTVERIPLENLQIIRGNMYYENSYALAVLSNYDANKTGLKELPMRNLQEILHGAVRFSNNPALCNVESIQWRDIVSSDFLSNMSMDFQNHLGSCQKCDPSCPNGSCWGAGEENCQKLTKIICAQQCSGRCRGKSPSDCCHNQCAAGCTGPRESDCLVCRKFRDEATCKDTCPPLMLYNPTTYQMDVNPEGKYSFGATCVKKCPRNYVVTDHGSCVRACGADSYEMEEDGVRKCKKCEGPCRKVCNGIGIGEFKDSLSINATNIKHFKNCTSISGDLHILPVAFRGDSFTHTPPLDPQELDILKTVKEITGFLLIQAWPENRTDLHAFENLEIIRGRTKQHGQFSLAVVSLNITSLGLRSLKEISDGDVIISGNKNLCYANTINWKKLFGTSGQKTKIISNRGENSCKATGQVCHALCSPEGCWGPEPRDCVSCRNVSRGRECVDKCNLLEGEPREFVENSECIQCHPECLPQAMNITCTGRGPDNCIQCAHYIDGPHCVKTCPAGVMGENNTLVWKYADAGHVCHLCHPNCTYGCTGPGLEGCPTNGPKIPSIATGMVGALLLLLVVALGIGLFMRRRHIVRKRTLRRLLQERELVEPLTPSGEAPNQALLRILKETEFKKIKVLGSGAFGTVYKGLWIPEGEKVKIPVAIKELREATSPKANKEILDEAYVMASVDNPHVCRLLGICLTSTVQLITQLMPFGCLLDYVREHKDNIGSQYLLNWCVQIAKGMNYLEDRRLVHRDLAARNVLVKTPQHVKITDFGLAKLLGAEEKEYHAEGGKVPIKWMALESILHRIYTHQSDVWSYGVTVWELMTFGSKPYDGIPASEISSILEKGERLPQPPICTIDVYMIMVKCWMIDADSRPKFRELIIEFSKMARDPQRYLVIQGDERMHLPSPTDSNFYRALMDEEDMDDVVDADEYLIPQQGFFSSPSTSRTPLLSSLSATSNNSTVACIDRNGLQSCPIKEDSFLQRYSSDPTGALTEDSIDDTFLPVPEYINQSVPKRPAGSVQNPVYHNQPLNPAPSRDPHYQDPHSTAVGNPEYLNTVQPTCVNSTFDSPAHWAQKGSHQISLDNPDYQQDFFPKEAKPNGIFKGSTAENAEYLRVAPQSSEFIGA

SMILES	melting point	IC50 (HT29 cells; [9]) [nM]	IC50 (HT29 cells; [10]) [nM]	H1975 HCR (H1975 cells; Table 7) [fold]	IC50 (H1975 cells; [11]) [nM]	IC50 (H1975 cells; [12]) [nM]	A431 HCR (A431 cells; Table 7) [fold]	IC50 (A431 cells; [13]) [nM]	IC50 (A431 cells; [14]) [nM]	Detection of MNA (methyl nitroaromatic) [1]	% Loss of prodrug [1] [%]	kfrag. (fragmentation rate constant upon 1-electron reduction) [2] [s⁻¹]	E (1)/V (one-electron reduction potential) [2] [V]	also measured
Cn1cnc([N+](=O)[O-])c1C[N+]1(C/C=C/C(=O)Nc2ccc3ncnc(Nc4cccc(Br)c4)c3c2)CCOCC1.O=C[O-]	125 to 129 °C	–	–	–	–	–	–	–	–	–	–	–	–	–
C[N+](C)(C/C=C/C(=O)Nc1ccc2ncnc(Nc3cccc(Br)c3)c2c1)Cc1ccc([N+](=O)[O-])cc1 (as salt: bromide) [Compound 17, (2E)-4-{[4-(3-bromoanilino)-6-quinazolinyl]amino}-N,N-dimethyl-N-(4-nitrobenzyl)-4-oxo-2-buten-1-ammonium bromide]	178 to 181 °C	–	–	–	–	–	–	–	–	–	–	–	–	–
C[N+](C)(C/C=C/C(=O)Nc1ccc2ncnc(Nc3cccc(Br)c3)c2c1)Cc1ccccc1[N+](=O)[O-] (as salt: bromide) [Compound 18, (2E)-4-{[4-(3-bromoanilino)-6-quinazolinyl]amino}-N,N-dimethyl-N-(2-nitrobenzyl)-4-oxo-2-buten-1-ammonium bromide]	166 to 169 °C	–	–	–	–	–	–	–	–	–	–	–	–	–
Cn1cnc([N+](=O)[O-])c1C[N+](C)(C)CCCC(=O)Nc1ccc2ncnc(Nc3cccc(Br)c3)c2c1 (as salt: bromide) [Compound 27, 4-{([4-(3-bromoanilino)-6-quinazolinyl]amino}-N,N-dimethyl-N-[(1-methyl-4-nitro-1H-imidazol-5-yl)methyl]-4-oxo-1-butanaminium bromide]	177 °C (dec.)	–	–	–	–	–	–	–	–	–	–	–	–	–
O=C(/C=C/CN1CCCCC1)Nc1ccc2ncnc(Nc3cccc(Br)c3)c2c1 [Compound 12, (E)-N-(4-(3-bromophenylamino)quinazolin-6-yl)-4-(piperidin-1-yl)but-2-enamide, reference compound]	–	–	–	–	–	–	–	–	–	–	–	–	–	IC50 (erbB1): 45 nM; IC50 (SW620 cells; [3]): 3810 nM; IC50 (SW620 cells; [4]): 4010 nM; SW620 HCR (SW620 cells): 1.0 fold; IC50 (SKBR3 cells; [5]): 44 nM; IC50 (SKBR3 cells; [6]): 28 nM; SKBR3 HCR (SKBR3 cells): 1.6 fold; IC50 (A431 cells; [7]): 10 nM; IC50 (A431 cells; [8]): 23 nM; A431 HCR (Hypoxic Cytotoxicity Ratio) (A431 cells): 0.4 fold
O=C(/C=C/CN1CCOCC1)Nc1ccc2ncnc(Nc3cccc(Br)c3)c2c1 [Compound 13, (E)-N-(4-(3-bromophenylamino)quinazolin-6-yl)-4-morpholinobut-2-enamide, reference compound]	–	–	–	–	–	–	–	–	–	–	–	–	–	IC50 (erbB1): 16 nM; IC50 (SW620 cells; [3]): 27400 nM; IC50 (SW620 cells; [4]): 29000 nM; SW620 HCR (SW620 cells): 1.5 fold; IC50 (SKBR3 cells; [5]): 1040 nM; IC50 (SKBR3 cells; [6]): 664 nM; SKBR3 HCR (SKBR3 cells): 1.6 fold; IC50 (A431 cells; [7]): 430 nM; IC50 (A431 cells; [8]): 784 nM; A431 HCR (Hypoxic Cytotoxicity Ratio) (A431 cells): 0.5 fold
Cn1cnc([N+](=O)[O-])c1C[N+](C)(C)C/C=C/C(=O)Nc1cc2c(Nc3ccc(F)c(Cl)c3)ncnc2cc1O[C@H]1CCOC1.O=C([O-])C(F)(F)F [Compound 82, (2E)-4-({4-(3-chloro-4-fluoroanilino)-7-[(3S)-tetrahydro-3-furanyloxy]-6-quinazolinyl}amino)-N,N-dimethyl-N-[(1-methyl-4-nitro-1H-imidazol-5-yl)methyl]-4-oxo-2-buten-1-ammonium trifluoroacetate]	–	> 100000	> 30000	28	64500	2300	62	59	3600	–	–	–	–	–
CC[N+](CC)(CCOc1ccc(Nc2ncc3cc(-c4c(Cl)cccc4Cl)c(=O)n(C)c3n2)cc1)Cc1c([N+](=O)[O-])ncn1C.[Br-] [Compound 140, 2-(4-{[6-(2,6-dichlorophenyl)-8-methyl-7-oxo-7,8-dihydropyrido[2,3-d]pyrimidin-2-yl]amino}phenoxy)-N,N-diethyl-N-[(1-methyl-4-nitro-1H-imidazol-5-yl)methyl]ethanammonium bromide]	–	4600	310	13	4700	430	15	510	7900	Yes	92	310 ± 20	−0.429	release of effector following 1-electron reduction [1]: released their respective effector compounds; HT29 HCR (HT29 cells): 15 fold
CC[N+](CC)(CCOc1ccc(Nc2ncc3cc(-c4c(Cl)cccc4Cl)c(=O)n(C)c3n2)cc1)Cc1c([N+](=O)[O-])nc(C)n1C.[Br-] [Compound 141, 2-(4-{[6-(2,6-dichlorophenyl)-8-methyl-7-oxo-7,8-dihydropyrido[2,3-d]pyrimidin-2-yl]amino}phenoxy)-N-[(1,2-dimethyl-4-nitro-1H-imidazol-5-yl)methyl]N,N-diethylethanammonium bromide]	–	5600	320	18	6100	370	30	440	12300	Yes	83	1100 ± 100	−0.456	HT29 HCR (HT29 cells): 18 fold
CC[N+](CC)(CCNC(=O)c1c(C)[nH]c(/C=C2\C(=O)Nc3ccc(F)cc32)c1C)Cc1c([N+](=O)[O-])ncn1C.O=C([O-])C(F)(F)F [Compound 144, N,N-diethyl-2-[({5-[(Z)-(5-fluoro-2-oxo-1,2-dihydro-3H-indol-3-ylidene)methyl]-2,4-dimethyl-1H-pyrrol-3-yl}carbonyl)amino]-N-[(1-methyl-4-nitro-1H-imidazol-5-yl)methyl]ethanammonium trifluoroacetate]	–	298000	10700	3	203000	57200	7	24100	146000	Yes	68	470 ± 20	−0.449	release of effector following 1-electron reduction [1]: released their respective effector compounds; HT29 HCR (HT29 cells): 31 fold
CC[N+](CC)(CCNC(=O)c1c(C)[nH]c(/C=C2\C(=O)Nc3ccc(F)cc32)c1C)Cc1c([N+](=O)[O-])nc(C)n1C.[Br-] [Compound 145, N-[(1,2-dimethyl-4-nitro-1H-imidazol-5-yl)methyl]-N,N-diethyl-2-[({5-[(Z)-(5-fluoro-2-oxo-1,2-dihydro-3H-indol-3-ylidene)methyl]2,4-dimethyl-1H-pyrrol-3-yl}carbonyl)amino]ethanammonium bromide]	–	–	–	–	–	–	–	–	–	Yes	87	1050 ± 40	−0.456	–
CN(C)C/C=C/C(=O)Nc1cc2c(Nc3ccc(F)c(C(F)(F)F)c3)ncnc2cn1 [Compound 170]	–	–	–	–	–	–	–	–	–	–	–	–	–	IC50 (SKOV3 cells; 24 hour exposure oxic, read-out: Cellular Growth Inhibition IC50 SKOV3 Oxic): 990 nM; IC50 (SKOV3 cells; first 4 hours anoxic, read-out: Cellular Growth Inhibition IC50 SKOV3 Anoxic): 1800 nM; SKOV3 HCR (SKOV3 cells): 0.7 fold; IC50 (erbB1): 8 nM; IC50 (H1975 cells; Homo sapiens, NCI-H1975, Table 9, 24 hour exposure oxic, read-out: Cellular Growth Inhibition IC50 H1975 Oxic): 1700 nM; IC50 (H1975 cells; Homo sapiens, NCI-H1975, Table 9, first 4 hours anoxic, read-out: Cellular Growth Inhibition IC50 H1975 Anoxic): 1380 nM; H1975 HCR (H1975 cells; Table 9): 1.2 fold; IC50 (A431 cells; Homo sapiens, A-431, 4 h, read-out: Cellular Growth Inhibition IC50 A431 Anoxic): 250 nM; IC50 (A431 cells; [7]): 240 nM; A431 HCR (A431 cells; Table 9): 1.5 fold
